Here are results for six compounds from BindingDB's records for patent US20230414632 (Centre National De La Recherche Scientifique, 2023).

This assay has as its target Lysine--tRNA ligase (Homo sapiens, UniProt Q15046). The assay is described as follows: Homogeneous Time-Resolved Fluorescence Assay. The method, then:
Homogeneous time-resolved fluorescence (HTRF) assays were performed in black, half-area, flat bottom, 96-well microplates (Costar #3694). Human mitochondrial LysRS with a C-terminal HA-tag (mLysRS-HA), diluted in HTRF buffer (10 mM Tris-HCl pH 7.5, 50 mM NaCl, 10 mM 2-mercaptoethanol, BSA at 1 mg/ml) was added (20 μl at a dimer concentration of 3.75 nM) in the wells of microplates placed on ice. Compounds of formula I or II (1 μl of a 10 mM solution in DMSO) were then added to the wells, and mixing was achieved by pipetting up and down 3-times 10 μl. After centrifugation at 900 g for 1 min at 4° C., plates were placed at 4° C. on thermal modules of an epMotion 5075 v automated pipetting system (Eppendorf). A 10 μl sample of IN-H6 diluted in HTRF buffer at a dimer concentration of 250 nM was added and mixing was achieved by pipetting up and down 3-times 15 μl. Incubation was conducted at 4° C. for 1 h. A 10 μl aliquot of a mix of antibodies prepared in HTRF buffer, directed to the His-tag, conjugated with Eu3+ cryptate (Cisbio #61HISKLB, 0.125 μl per test, prepared as recommended by the supplier), and to the HA-tag, conjugated with XL665 (Cisbio #610HAXLB, 0.375 μl per test, prepared as recommended by the supplier), was added and mixing was achieved by pipetting up and down 3-times 15 μl. Incubation was conducted at 4° C. for 30 min.

Sequence of Lysine--tRNA ligase (Q15046 whole entry): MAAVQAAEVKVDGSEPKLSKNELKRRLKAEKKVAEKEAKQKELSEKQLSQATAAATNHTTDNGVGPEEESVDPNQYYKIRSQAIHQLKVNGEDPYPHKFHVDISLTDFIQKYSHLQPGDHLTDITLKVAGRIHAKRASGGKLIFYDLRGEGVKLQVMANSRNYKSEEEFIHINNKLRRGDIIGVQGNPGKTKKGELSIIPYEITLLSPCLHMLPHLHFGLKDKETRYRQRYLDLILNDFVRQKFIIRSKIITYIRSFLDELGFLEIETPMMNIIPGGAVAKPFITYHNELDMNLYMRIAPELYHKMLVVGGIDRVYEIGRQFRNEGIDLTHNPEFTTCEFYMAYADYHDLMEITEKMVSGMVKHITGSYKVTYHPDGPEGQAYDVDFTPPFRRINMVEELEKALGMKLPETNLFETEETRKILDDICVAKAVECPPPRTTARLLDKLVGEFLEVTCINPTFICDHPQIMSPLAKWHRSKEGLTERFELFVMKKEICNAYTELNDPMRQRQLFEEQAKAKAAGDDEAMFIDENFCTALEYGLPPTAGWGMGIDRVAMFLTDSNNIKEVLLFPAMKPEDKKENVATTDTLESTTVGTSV

Consider `COC(=O)C1=C(C)NC(C)=C(C(=O)OC(C)(C)CN(C)CCC(c2ccccc2)c2ccccc2)C1c1cccc([N+](=O)[O-])c1` (stereo unspecified) [US20230414632, Compound I-c], for which the IC50 – broadly, the concentration that gives 50% inhibition – came out at 320 µM. `COC(=O)C1=C(C)NC(C)=C(C(=O)OC2CCCN(Cc3ccccc3)C2)C1c1cccc([N+](=O)[O-])c1` (stereo unspecified) [US20230414632, Compound I-f] registered an IC50 of 450 µM. This IC50 and that of the compound before are within 1.5-fold of each other. For `CCOC(=O)C1=C(C)NC(C)=C(C(=O)OCC)C1c1ccccc1/C=C/C(=O)OC(C)(C)C` [US20230414632, Compound I-a] the value was 65 µM; for `COC(=O)C1=C(C)NC(C)=C(C(=O)OCCN2CCN(C(c3ccccc3)c3ccccc3)CC2)C1c1cccc([N+](=O)[O-])c1` (stereo unspecified) [US20230414632, Compound I-g], 400 µM; for `COCCOC(=O)C1=C(C)NC(C)=C(C(=O)OC/C=C/c2ccccc2)C1c1cccc([N+](=O)[O-])c1` (stereo unspecified) [US20230414632, Compound I-b], 400 µM. Next, `COC(=O)C1=C(C)NC(C)=C(C(=O)OCC(C)C)C1c1ccccc1[N+](=O)[O-]` (stereo unspecified) [US20230414632, Compound I-e]: 450 µM.
